Experimental data reported in paper PMC2724674 (Cancer research, 2009).

Biological target: VEGF receptor 2 kinase (VEGFR2, KDR/Flk-1) (Homo sapiens, UniProt P35968)
Experiment: in vitro kinase assay
Format: biochemical

Sequence of VEGF receptor 2 kinase (VEGFR2, KDR/Flk-1) (P35968 20-1356): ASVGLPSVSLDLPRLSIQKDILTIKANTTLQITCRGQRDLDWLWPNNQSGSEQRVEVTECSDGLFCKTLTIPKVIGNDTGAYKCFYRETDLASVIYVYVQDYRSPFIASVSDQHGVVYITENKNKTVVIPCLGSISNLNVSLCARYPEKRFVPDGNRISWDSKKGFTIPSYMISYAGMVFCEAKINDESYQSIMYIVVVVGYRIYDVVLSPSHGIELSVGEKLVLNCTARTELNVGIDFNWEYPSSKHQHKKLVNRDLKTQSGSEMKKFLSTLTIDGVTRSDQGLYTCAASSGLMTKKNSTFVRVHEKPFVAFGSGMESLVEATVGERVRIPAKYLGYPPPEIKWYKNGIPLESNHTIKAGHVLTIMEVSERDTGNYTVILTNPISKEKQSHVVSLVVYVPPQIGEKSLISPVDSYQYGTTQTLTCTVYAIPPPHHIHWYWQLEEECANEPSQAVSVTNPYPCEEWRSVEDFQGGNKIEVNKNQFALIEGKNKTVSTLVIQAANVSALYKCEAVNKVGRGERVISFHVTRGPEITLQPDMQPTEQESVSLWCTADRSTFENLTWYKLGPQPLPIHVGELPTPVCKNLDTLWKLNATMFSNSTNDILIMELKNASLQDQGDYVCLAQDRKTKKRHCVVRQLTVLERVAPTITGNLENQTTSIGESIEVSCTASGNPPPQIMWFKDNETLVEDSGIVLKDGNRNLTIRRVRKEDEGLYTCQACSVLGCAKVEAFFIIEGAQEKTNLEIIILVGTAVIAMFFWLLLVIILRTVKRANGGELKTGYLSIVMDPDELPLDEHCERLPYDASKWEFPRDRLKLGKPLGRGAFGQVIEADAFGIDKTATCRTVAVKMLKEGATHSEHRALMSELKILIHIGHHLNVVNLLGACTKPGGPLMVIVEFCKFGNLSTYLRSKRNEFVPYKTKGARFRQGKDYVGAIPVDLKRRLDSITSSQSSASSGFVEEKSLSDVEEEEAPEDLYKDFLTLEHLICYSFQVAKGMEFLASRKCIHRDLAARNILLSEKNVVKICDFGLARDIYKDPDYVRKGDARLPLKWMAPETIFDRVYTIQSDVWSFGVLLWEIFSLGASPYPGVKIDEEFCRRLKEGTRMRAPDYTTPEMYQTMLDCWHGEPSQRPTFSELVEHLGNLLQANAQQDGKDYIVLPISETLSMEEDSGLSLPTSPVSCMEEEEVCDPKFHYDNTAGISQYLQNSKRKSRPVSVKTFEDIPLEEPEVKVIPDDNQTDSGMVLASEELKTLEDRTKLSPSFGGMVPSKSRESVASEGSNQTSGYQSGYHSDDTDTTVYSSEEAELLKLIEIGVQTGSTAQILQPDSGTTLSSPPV

IC50: 1680 nM
SMILES: CC(=O)O[C@@H]1CC[C@@]2(C)[C@@H](CC[C@]3(C)[C@@H]2C(=O)C=C2[C@@H]4[C@@H](C)[C@H](C)CC[C@]4(C)CC[C@]23C)[C@@]1(C)C(=O)O [AKBA]
